Measured values: patent publication US6949250B2, “Selective algaecides for control of cyanochloronta” (The United States of America as represented by the …, priority 2002, dated 2005)

Legend:
Oscillatoria perornata = test: DNA1-19-1 first pond efficacy study (limnocorrals): O. perornata abundance; type: in vivo
chlorophyll a = test: DNA2-59-1 first pond efficacy study: chlorophyll a; type: in vivo
Protocol: (§1) The method described by Schrader et al. (2000) was used to determine the potential for using the anthraquinone derivatives as selective algicides in catfish aquaculture ponds. All catfish ponds used in efficacy tests were maintained using commercial pond management practices and were located at the Thad Cochran Pond Facility, Mississippi State University, Stoneville, Miss. Anthraquinone analogs were dissolved in deionized water before application to water within the limnocorrals.
(§2) Limnocorrals in which test compound was applied to the enclosed water were randomly selected, and control (no test compound applied) limnocorrals were included in each efficacy study. […]
(§3) In the first study, application rates of 0.1 μM (37.7 μg/L), 0.3 μM ([…]), and 1.0 μM (377 μg/L) of DNA2-59-1 were tested using limnocorrals (three replicates per concentration) that were of the same type used for testing DNA1-19-1. […] Water samples were also analyzed to determine the persistence of DNA2-59-1 in the pond water, and this analysis was performed by using high-pressure liquid chromatography (HPLC) (method and results are described later).

green algae = test: DNA2-59-1 third pond efficacy study: green algae abundance; type: in vivo; conditions: 0.3 μM, from three days after application
Protocol: as §1
(§4) Limnocorrals in which test compound was applied to the enclosed water were randomly selected, and control (no test compound applied) limnocorrals were included in each efficacy study. For each sampling, two water samples (250 mL) were obtained from within each limnocorral (approximately 6-8 cm below the water surface and from opposite sides of each limnocorral) and mixed together in a 500 mL sample bottle to provide a representative sample of the water contained within the limnocorral.
(§5) For the third efficacy test with DNA2-59-1, twelve limnocorrals (2.44 m in diameter and 1.53 m high) were placed in a 4-ha earthen pond containing a bloom of O. perornata. […]

2-methylisoborneol [1] = test: DNA2-59-1 third pond efficacy study: MIB levels; type: in vivo; conditions: 0.3 μM, 24 hours after application
Protocol: as §1, §4, §5

Anabaena circinalis = test: DNA2-59-1 first pond efficacy study: Anabaena circinalis abundance; type: in vivo
Protocol: as §1, §2, §3

2-methylisoborneol [2] = test: DNA2-59-1 second pond efficacy study: MIB levels; type: in vivo; conditions: 0.3 μM, after three days
Protocol: as §1, §4
(§6) In the second efficacy test with DNA2-59-1, six limnocorrals (1.53 m in diameter and 1.53 m high) were placed in a 0.1-ha earthen pond containing a heavy bloom of O. perornata. The same delay in mixing the water within the limnocorrals used in the first efficacy study was utilized. Water within three randomly selected limnocorrals received an application rate of 0.3 μM DNA2-59-1, and the other three limnocorrals were controls. […]

Oscillatoria agardhii [3] = test: DNA2-59-1 second pond efficacy study: Oscillatoria agardhii abundance; type: in vivo; conditions: 0.3 μM
Protocol: as §1, §4, §6

[4] = DNA2-59-1 second efficacy study: dissipation rate and half-life in pond water (HPLC); type: physicochemical; conditions: for DNA2-59-1 Levels in Pond Water: second study, 0.3 μM applied
Protocol: In the second efficacy test with DNA2-59-1, six limnocorrals (1.53 m in diameter and 1.53 m high) were placed in a 0.1-ha earthen pond containing a heavy bloom of O. perornata. The same delay in mixing the water within the limnocorrals used in the first efficacy study was utilized. Water within three randomly selected limnocorrals received an application rate of 0.3 μM DNA2-59-1, and the other three limnocorrals were controls. Water samples were collected before application of DNA2-59-1, 20 minutes after application, and at days 1, 2, 3, and 7. The same tests and methods used in the first efficacy testing of DNA2-59-1 were used.
Approximately 15 mL each of water samples from DNA2-59-1 efficacy testing that were designated for HPLC analysis were placed in scintillation vials and held in a freezer. Water samples were later melted at room temperature, and 5 mL of each sample was then filtered through a nylon membrane filter (13 mm diameter and 0.45 μm; Whatman International, Maidstone, England) using a 5 mL syringe (Hamilton Company, Reno, Nev.) and a 13 mm syringe filter holder (Fisher Scientific Company, Pittsburgh, Pa.). Filtrate (1 mL) was placed in 2 mL vials and capped using teflon/rubber septum caps (National Scientific Company, Jeddah, Saudia Arabia). The filter paper was removed and placed in a scintillation vial to which 2 mL of HPLC grade methanol (Fisher Scientific, Fair Lawn, N.J.) was added and then sonicated for 5 minutes. The methanol solution was then filtered using a nylon membrane acrodisc (25 mm and 0.45 μm; Pall Life Sciences, Ann Arbor, Mich.), and the methanol filtrate was placed in separate 2 mL vials.
Filtrate samples were analyzed using a Waters 2690 Alliance HPLC containing a 996 PDA detector and a XTerra RP 18 column (150 mm×4.6 mm, 5 μm particle size; Waters Corporation, Milford, Mass.). The mobile phase consisted of 25 mM sodium dihydrogenphosphate in 0.1% phosphoric acid (A) and acetonitrile (B). The gradient was from 80A/20B in 15 minutes to 40A/60B. After each run, a 5 minute wash with methanol was performed, followed by equilibrating the column for 10 minutes with 80A/20B. The temperature was set at 40° C., the flow rate was 1 mL/minute, the detection wavelength 256 nm, and the sample injection volume was 10 μL. All solvents used were HPLC grade (Fisher Scientific, Fair Lawn, N.J.).
Means and standard deviations of data were determined and graphed. The graphs were used to help determine the half-life of DNA2-59-1 in the pond water. Because of the short duration of the first efficacy study, the half-life of DNA2-59-1 in the pond water could not be determined.

Cylindrospermopsis spp. = test: DNA2-59-1 third pond efficacy study: Cylindrospermopsis spp. abundance; type: in vivo; conditions: 0.3 μM, one day after application
Protocol: as §1, §4, §5

Oscillatoria agardhii [5] = test: DNA2-59-1 third pond efficacy study: Oscillatoria agardhii abundance; type: in vivo; conditions: 0.3 μM
Protocol: as §1, §4, §5

SMILES	selectively reducing numbers of O. perornata and MIB levels in pond water (result in words) (Oscillatoria perornata; applied at 2 μM)	Numbers of filaments of O. perornata (result in words) (Oscillatoria perornata; first study, 2 μM, numbers began to increase within 3 days)	Chlorophyll a levels significantly reduced compared to controls (result in words) (chlorophyll a; 0.1 μM)	chlorophyll a levels compared to controls (result in words) (chlorophyll a; 1 and 0.3 μM)	Numbers of green algae vs control limnocorrals (result in words) (green algae)	Levels of 2-methylisoborneol (result in words) (2-methylisoborneol [1])	Numbers of Anabaena circinalis compared to controls (result in words) (Anabaena circinalis; 1 μM)	filaments of A. circinalis present (result in words) (Anabaena circinalis; 16 hours after application of 1 μM)	Levels of MIB (result in words) (2-methylisoborneol [2])	Numbers of Oscillatoria agardhii (result in words) (Oscillatoria agardhii [3])	half-life at 0.3 μM ([4]; pond water in limnocorrals (earthen catfish pond), second efficacy study)	DNA2-59-1 Levels in Pond Water ([4]; 0 hours)	DNA2-59-1 Levels in Pond Water ([4]; 24 hours)	DNA2-59-1 Levels in Pond Water ([4]; 48 hours)	DNA2-59-1 Levels in Pond Water ([4]; 72 hours)	DNA2-59-1 Levels in Pond Water ([4]; 168 hours)	Numbers of Cylindrospermopsis spp. (result in words) (Cylindrospermopsis spp.)	Numbers of Oscillatoria agardhii (result in words) (Oscillatoria agardhii [5])
CCN(CC)CCCC(C)NCc1ccc2c(c1)C(=O)c1ccccc1C2=O.O=P(O)(O)O.O=P(O)(O)O (stereo not drawn) [DNA1-19-1, 2-[methylamino-N-(1′-methyl-4′-N,N-diethylaminobutyl)]-9,10-anthraquinone diphosphate]	effective	significantly reduced	–	–	–	–	–	–	–	–	–	–	–	–	–	–	–	–
CC(C)NCc1ccc2c(c1)C(=O)c1ccccc1C2=O [DNA2-59-1, 2-[methylamino-N-(1′-methylethyl)]-9,10-anthraquinone monophosphate]	–	–	not	significantly reduced	significantly higher	significantly reduced	significantly reduced	no filaments of A. circinalis were observed to be present	significantly reduced	not affected	19 h	94.8 ± 11.5 µg/L	36.1 ± 4.5 µg/L	16.3 ± 0.4 µg/L	7.6 ± 0.7 µg/L	0 µg/L	significantly reduced	significantly reduced
